Where two headings read alike, the source gives them in different places. No end group written: not given here.
T1: human TAS1R2-WT/TAS1R3-M110T (Homo sapiens, UniProt Q7RTX0+Q8TE23, M110T)
T1 construct: expressed in transfected cells; host or cells: HEK293T stably expressing Gα16gust44
T1 sequence (Q8TE23 20-839): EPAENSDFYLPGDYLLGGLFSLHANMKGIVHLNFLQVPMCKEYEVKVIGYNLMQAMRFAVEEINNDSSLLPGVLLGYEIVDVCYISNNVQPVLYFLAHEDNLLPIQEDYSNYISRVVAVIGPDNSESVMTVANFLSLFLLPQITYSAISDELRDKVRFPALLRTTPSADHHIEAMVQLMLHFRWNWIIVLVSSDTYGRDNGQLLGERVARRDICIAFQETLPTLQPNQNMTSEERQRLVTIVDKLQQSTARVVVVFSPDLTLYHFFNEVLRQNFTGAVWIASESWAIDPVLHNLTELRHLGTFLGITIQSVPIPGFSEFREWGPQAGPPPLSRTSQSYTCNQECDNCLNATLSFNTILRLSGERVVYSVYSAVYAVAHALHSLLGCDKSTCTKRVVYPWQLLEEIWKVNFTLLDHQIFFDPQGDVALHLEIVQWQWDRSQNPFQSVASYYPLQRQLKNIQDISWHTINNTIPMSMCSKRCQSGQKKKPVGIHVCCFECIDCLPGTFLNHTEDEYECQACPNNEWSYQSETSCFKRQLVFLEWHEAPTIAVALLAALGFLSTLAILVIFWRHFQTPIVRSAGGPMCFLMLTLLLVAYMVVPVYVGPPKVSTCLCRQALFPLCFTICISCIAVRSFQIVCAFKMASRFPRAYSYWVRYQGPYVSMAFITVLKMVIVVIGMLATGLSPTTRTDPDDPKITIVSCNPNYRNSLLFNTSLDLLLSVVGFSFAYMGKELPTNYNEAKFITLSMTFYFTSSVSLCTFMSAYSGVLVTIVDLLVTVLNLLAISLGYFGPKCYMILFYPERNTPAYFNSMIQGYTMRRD
T1 sequence (Q7RTX0 21-852 M110T): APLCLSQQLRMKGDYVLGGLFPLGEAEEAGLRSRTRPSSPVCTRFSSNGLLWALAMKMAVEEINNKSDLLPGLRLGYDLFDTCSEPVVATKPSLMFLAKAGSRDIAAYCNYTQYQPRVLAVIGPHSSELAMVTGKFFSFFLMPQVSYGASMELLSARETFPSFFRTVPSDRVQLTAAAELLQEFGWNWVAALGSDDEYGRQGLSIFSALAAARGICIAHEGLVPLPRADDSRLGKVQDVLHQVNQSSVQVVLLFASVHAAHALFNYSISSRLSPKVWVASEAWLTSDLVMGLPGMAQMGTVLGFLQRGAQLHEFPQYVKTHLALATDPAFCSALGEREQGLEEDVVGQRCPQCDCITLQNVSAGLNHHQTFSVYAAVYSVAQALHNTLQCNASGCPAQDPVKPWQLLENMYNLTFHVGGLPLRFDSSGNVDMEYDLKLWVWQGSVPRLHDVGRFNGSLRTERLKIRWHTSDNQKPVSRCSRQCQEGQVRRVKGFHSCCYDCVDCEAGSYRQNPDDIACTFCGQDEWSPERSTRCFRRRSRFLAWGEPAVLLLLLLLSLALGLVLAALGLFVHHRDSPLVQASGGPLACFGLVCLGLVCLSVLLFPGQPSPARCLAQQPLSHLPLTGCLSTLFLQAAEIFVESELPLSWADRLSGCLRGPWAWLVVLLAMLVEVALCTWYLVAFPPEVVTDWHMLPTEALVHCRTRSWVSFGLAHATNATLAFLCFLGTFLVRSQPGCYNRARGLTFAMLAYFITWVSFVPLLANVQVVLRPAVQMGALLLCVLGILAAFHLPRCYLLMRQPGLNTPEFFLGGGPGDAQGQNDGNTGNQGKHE


Target: T1, human TAS1R2-WT/TAS1R3-M110T
Assay: Calcium mobilisation assay, TAS1R2-WT with TAS1R3 variant M110T
Assay type: cell-based
Details: for Max ΔF/F0: maximal signal amplitude
Source text: The coding sequences for TAS1R2 and TAS1R3 were commercially synthesised, and the human codon was optimised for expression in human cells. The coding sequences of human TAS1R2 and TAS1R3 were subcloned and inserted into the mammalian expression vectors pcDNA6/myc-HisA and pcDNA4/myc-HisA (Invitrogen; Thermo Fisher Scientific; Illkirch, France) between the EcoRI and NotI restriction sites, generating the plasmids pcDNA6-TAS1R2 and pcDNA4-TAS1R3, respectively. To increase protein expression in mammalian cells, an upstream start codon was used, which was a sequence called MAX, corresponding to the QBI SP163 element also described in pcDNA4-HisMax (Invitrogen; Thermo Fisher Scientific; Illkirch, France). To measure the expression level of the receptor by immunohistochemistry, we used the FLAG sequence ([…]) in the C-terminal position, which encodes the FLAG tag epitope. SNP variants of TAS1R2 and TAS1R3 were constructed based on […], respectively, using site-directed mutagenesis (Genewiz; Leipzig, Germany).
The HEK293T cells were kindly provided by Jay P. Slack (Givaudan Flavors Corporation; Cincinnati, OH, USA). HEK293T cells stably transfected with Gα16gust44 [43, 67] were seeded in poly-D-lysine-coated clear-bottom black 96-well plates (0.35 × 10^5 cells/well) in high-glucose DMEM supplemented with 2 mM GlutaMAX, 10% dialysed foetal bovine serum with penicillin/streptomycin and G418 (400 μg/mL) at 37 °C and 6.3% CO2 in a humidified atmosphere as previously reported. […] As a negative control, HEK293T cells were mock-transfected with the empty expression vector. After a further 24 h of incubation, the HEK293T cells were washed with C1 buffer (130 mM NaCl, 5 mM KCl, 10 mM HEPES pH 7.4 and 2 mM CaCl2). The 96-well plates containing the cells were then stimulated with sweet-tasting compounds. […] Different concentration ranges were tested depending on the sweet compound injected. The Ca^2+ changes were expressed as fractional changes in fluorescent light intensity: ΔF/F = (F − F0)/F0, where F was the fluorescent light intensity at each point, and F0 was the value of emitted fluorescent light prior to stimulus application. To calculate dose–response relationships, the changes in fluorescence upon stimulus application were averaged, mock-subtracted and baseline-corrected. The dose–response data obtained were adjusted using a 4-parameter logistic equation. The half-maximal effective concentrations (EC50 values) and maximal signal amplitudes were calculated using SigmaPlot software (version 15.0) (Systat Software; San Jose, CA, USA).
For in vitro calcium mobilisation assay performed on hTAS1R2-SNPs, hTAS1R3-SNPs and mTAS1R3-I60T, 6 to 7 concentrations were tested for each sweet compound, plus buffer alone. All concentration–receptor combinations were measured in duplicate, and each experiment was repeated at least 4 times (8 wells/concentration). Results were expressed for each concentration as ΔF/F mean ± SEM and represented as dose–response curves.

Molecule | R1 = Variant EC50/WT EC50 | Max ΔF/F0 | EC50 (read-out: EC50) [µM] | EC50 (brazzein) [µg/mL]
CC1=CC(=O)NS(=O)(=O)O1 [Acesulfame K, acesulfame K] | 1.7 | 0.20 ± 0.01 | 1060 ± 648 | –
O=S(=O)(O)NC1CCCCC1 [Cyclamate, cyclamate] | – | – | 2620 ± 98 | –
C[C@H](CC[C@@H](O[C@@H]1O[C@H](CO[C@@H]2O[C@H](CO)[C@@H](O)[C@H](O)[C@H]2O)[C@@H](O)[C@H](O)[C@H]1O[C@@H]1O[C@H](CO)[C@@H](O)[C@H](O)[C@H]1O)C(C)(C)O)[C@H]1CC[C@@]2(C)[C@@H]3CC=C4[C@@H](CC[C@H](O[C@@H]5O[C@H](CO[C@@H]6O[C@H](CO)[C@@H](O)[C@H](O)[C@H]6O)[C@@H](O)[C@H](O)[C@H]5O)C4(C)C)[C@]3(C)[C@H](O)C[C@]12C [Mogroside V, mogroside V] | 3.0 | 0.43 ± 0.02 | 94.5 ± 8.4 | –
COc1ccc(CCC(=O)c2c(O)cc(O[C@@H]3O[C@H](CO)[C@@H](O)[C@H](O)[C@H]3O[C@@H]3O[C@@H](C)[C@H](O)[C@@H](O)[C@H]3O)cc2O)cc1O [NHDC, neohesperidin dihydrochalcone] | 4.0 | 0.48 ± 0.02 | 203 ± 17.1 | –
COC(=O)[C@H](Cc1ccccc1)NC(=O)[C@H](CC(=O)O)NCCC(C)(C)C [Neotame] | 2.2 | 0.19 ± 0.01 | 2.7 ± 0.29 | –
C=C(C)[C@@H]1CC=C(/C=N/O)CC1 [Perillartine, perillartine] | 3.0 | 1.31 ± 0.21 | 41.1 ± 19.4 | –
C=C1C[C@@]23CC[C@H]4[C@@](C)(CCC[C@@]4(C)C(=O)O[C@@H]4O[C@H](CO)[C@@H](O)[C@H](O[C@@H]5O[C@H](CO)[C@@H](O)[C@H](O)[C@H]5O)[C@H]4O[C@@H]4O[C@H](CO)[C@@H](O)[C@H](O)[C@H]4O)[C@@H]2CC[C@]1(O[C@@H]1O[C@H](CO)[C@@H](O)[C@H](O[C@@H]2O[C@H](CO)[C@@H](O)[C@H](O)[C@H]2O)[C@H]1O[C@@H]1O[C@H](CO)[C@@H](O)[C@H](O)[C@H]1O)C3 [Rebaudioside M, rebaudioside M] | 2.6 | 0.38 ± 0.04 | 103 ± 18 | –
OC[C@H]1O[C@H](O[C@]2(CCl)O[C@H](CCl)[C@@H](O)[C@@H]2O)[C@H](O)[C@@H](O)[C@H]1Cl [Sucralose] | 2.6 | 0.11 ± 0.02 | 282 ± 101 | –

Second part, the molecule after the results:

R1 = Variant EC50/WT EC50 | Max ΔF/F0 | EC50 (read-out: EC50) [µM] | EC50 (brazzein) [µg/mL] | Molecule
2.0 | 0.68 ± 0.01 | – | 221.5 ± 11.3 | brazzein (QDKCKKVYENYPVSKCQLANQCNYDCKLDKHARSGECFYDEKRNLQCICDYCEY; ends and bridges not checked; cysteine pairing not given here; UniProt P56552 1-54, looked up) [sweet-tasting protein obtained by recombinant production using the yeast Pichia pastoris]
1.6 | 0.38 ± 0.01 | – | – | thaumatin
– | – | 16.3 ± 0.9 | – | thaumatin (protein, Eight disulfides, sweet-tasting plant protein, E957) ATFEIVNRCSYTVWAAASKGDAALDAGGRQLNSGESWTINVEPGTKGGKIWARTDCYFDDSGSGICKTGDCGGLLRCKRFGRPPTTLAEFSLNQYGKDYIDISNIKGFNVPMDFSPTTRGCRGVRCAADIVGQCPAKLKAPGGGCNDACTVFQTSEYCCTTGKCGPTEYSRFFKRLCPDAFSYVLDKPTTVTCPGSSNYRVTFCPTA
